Data taken from patent publication US10233205B2, “Magnetic resonance imaging contrast agent capable of detecting hydrogen peroxide and reducing reactive oxygen species” (Auburn University, priority 2015, dated 2019).

Tests used:
H9c2 cells = experiment: Cytotoxicity, CyQUANT cell number; assay type: cell-based; parameters: dose tolerated by H9c2 cells: unit not given here
Description: H9c2 cells were obtained from the American Tissue Type Collection (Manassas, Va., USA) and grown at 37° C. with 95% humidity and 5% CO2. Cells were grown in Dulbecco's modified eagles medium (DMEM) supplemented with 10% fetal bovine serum. Experiments were performed at 70-80% confluence. All experiments were performed in DMEM in the absence of fetal bovine serum. To determine the cytotoxic effects of 1 and 2, the H9c2 cells were exposed to increasing concentrations of these reagents or their vehicle in DMEM for either 4 or 24 h. The cell number was assessed using the CyQUANT Cell Proliferation Assay Kit (Life Technologies Corporation, Carlsbad, Calif.) per manufacturer's instructions. Cell number was expressed as a percentage of that measured for the vehicle-treated cells. Values are expressed as mean and SEM and represent three experiments performed in triplicate.
The toxicity of 3 was tested using H9c2 cells in order to facilitate comparison to that of 1. H9c2 cells were obtained from the American Tissue Type Collection (Manassas, Va., USA) and grown at 37° C. with 95% humidity and 5% CO2. Cells were grown in Dulbecco's modified eagles medium (DMEM) supplemented with 10% fetal bovine serum. Experiments were performed at 70-80% confluence. To determine the cytotoxic effects of 3, H9c2 cells were exposed to increasing concentrations of 3 ([…]) or its vehicle in DMEM for 4 or 24 hr. Cell number was assessed using the CyQUANT Cell Proliferation Assay Kit (Life Technologies Corporation, Carlsbad, Calif.) per manufacturer's instructions. Cell number was expressed as percentage of the vehicle-treated cells. Values are expressed as mean and standard deviation and represent 2-4 experiments performed in triplicate. The bars marked with an * display a significant difference from the vehicle-treated cell number for corresponding time period (p<0.05).

[1] = Superoxide scavenging, hypoxanthine-xanthine oxidase / lucigenin luminescence; assay type: biochemical; settings: 50 mM Tris-HCl pH 8.0
Description: Superoxide was produced in situ from a reaction between xanthine and xanthine oxidase. The subsequent reaction of the O2^− with lucigenin provided a spectroscopic signal that can be used to provide a qualitative measure of an anti-oxidant's ability to degrade O2^−. The copper/zinc superoxide dismutase isolated from bovine erythrocytes (0.001-100 U/ml, Calbiochem) was used as a positive control. The assay was carried out in a total volume of 1 mL containing 50 mM tris (pH 8.0), hypoxanthine (50 μM), xanthine oxidase (0.005 U/ml, Calbiochem) and dark adapted lucigenin (5 μM) in the presence of a complex (0.1 nM-10 μM) or their vehicle. Reactions were carried out at room temperature and were initiated by the addition of xanthine oxidase to the hypoxanthine-containing solution. Luminescence was measured using a TD-20/20 (Turner Designs) luminometer and expressed as relative light units (RLU). Luminescence was measure for four 10 s integrations after an initial delay of 3 s. The four RLU values were averaged, and each concentration was expressed as a percent of that produced in the presence of vehicle. Each assay data point was performed in duplicate and assays were repeated three times.
Superoxide was generated using a hypoxanthine-xanthine oxidase reaction and detected using the chemiluminescent probe lucigenin. Reactions were carried out in 50 mM Tris-HCl (pH 8.0) containing either 1, 2, or Cu/Zn SOD from bovine erythrocytes (insert). Data for the various concentrations of 1, 2, and SOD are expressed as a percentage of luminescence in the presence of vehicle.
The ability of 3 to degrade superoxide was tested using a standard technique that uses the reaction between xanthine oxidase and xanthine to generate O2^− and a subsequent reaction with the chemiluminescent probe lucigenin to detect it. Reactions were carried out in 50 mM Tris-HCl (pH 8.0). Data for the various concentrations of Mn(II) complex are expressed as a percentage of luminescence in the presence of vehicle.

Compound	H9c2 cells surviving (H9c2 cells; 10 μM, 24 h)	concentration without cell death / within error of control (H9c2 cells; 4 h) [µM]	dose tolerated by H9c2 cells (H9c2 cells; 4 h)	concentration without impact on H9c2 viability (H9c2 cells; 24 h) [µM]	dose tolerated by H9c2 cells (H9c2 cells; 24 h)	superoxide scavenging [1]
CC#N.O=S(=O)([O-])C(F)(F)F.O=S(=O)([O-])C(F)(F)F.[Mn+2].[O-]c1ccc(O)cc1CN(CCN(Cc1ccccn1)Cc1ccccn1)Cc1ccccn1 [Complex 1, Acetonitrilo(N-(2,5-dihydroxy-benzyl)-N,N′,N′-tris(2-pyridinylmethyl)-1,2-ethanediamine)manganese(II) triflate]	less than 50%	10	10	1.0	1.0	successfully intercepts O2^−
CC#N.Cc1ccc(O)c(CN(CCN(Cc2ccccn2)Cc2ccccn2)Cc2ccccn2)c1.[Mn+2].[O-][Cl+3]([O-])([O-])[O-].[O-][Cl+3]([O-])([O-])[O-] [Complex 2, reference compound]	–	–	10	–	–	successfully intercepts O2^−
cis-Dibromo(N,N′-bis(2,5-dihydroxybenzyl)-N,N′-bis(2-pyridinylmethyl)-1,2-ethanediamine)manganese(II) [Complex 3]	–	50	–	10	–	successfully intercepts O2^−
